Measurements as given in ChEMBL document CHEMBL3352611, “Deconstruction of 6,7-dimethoxy-1,2,3,4-tetrahydroisoquinoline moiety to separate P-glycoprotein (P-gp) activity from σ2 receptor affinity in mixed P-gp/σ2 receptor agents” (Eur J Med Chem, 2015).

Assays:
[1] = molecular target: ATP-dependent translocase ABCB1 (Homo sapiens, UniProt P08183); assay: Activity at MDR1 (unknown origin) expressed in MDCK-MDR1 cells by Calcein-AM assay; format: cell-based
[2] = Displacement of [3H]-DTG from sigma2 receptor in rat liver membranes in presence of […] (+)-pentazocine by radioligand binding assay; format: cell membranes, Membrane
[3] = Selectivity index, ratio of Ki for sigma1 recetor in guinea-pig brain membranes to Ki for sigma2 receptor in rat liver membranes; format: cell membranes
[4] = molecular target: Sigma non-opioid intracellular receptor 1 (Cavia porcellus, UniProt Q60492); assay: Displacement of (+)-[3H]-pentazocine from sigma1 recetor in guinea-pig brain membranes without cerebellum by radioligand binding assay; format: cell membranes, Membrane
Sigma non-opioid intracellular receptor 1, sequence (Q60492 whole entry): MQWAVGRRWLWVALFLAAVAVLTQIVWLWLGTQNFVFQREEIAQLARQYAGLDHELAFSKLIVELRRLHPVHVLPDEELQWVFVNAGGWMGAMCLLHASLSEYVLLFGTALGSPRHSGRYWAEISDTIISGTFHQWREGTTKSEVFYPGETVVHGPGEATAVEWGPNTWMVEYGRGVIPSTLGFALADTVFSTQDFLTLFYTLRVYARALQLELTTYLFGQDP

[5] = molecular target: Sigma non-opioid intracellular receptor 1 (Cavia porcellus) (UniProt Q60492); details: Brain, Membrane, 10 pM
Sigma non-opioid intracellular receptor 1 (Cavia porcellus), sequence (Q60492 whole entry): as above

ATP-dependent translocase ABCB1, sequence (P08183 whole entry): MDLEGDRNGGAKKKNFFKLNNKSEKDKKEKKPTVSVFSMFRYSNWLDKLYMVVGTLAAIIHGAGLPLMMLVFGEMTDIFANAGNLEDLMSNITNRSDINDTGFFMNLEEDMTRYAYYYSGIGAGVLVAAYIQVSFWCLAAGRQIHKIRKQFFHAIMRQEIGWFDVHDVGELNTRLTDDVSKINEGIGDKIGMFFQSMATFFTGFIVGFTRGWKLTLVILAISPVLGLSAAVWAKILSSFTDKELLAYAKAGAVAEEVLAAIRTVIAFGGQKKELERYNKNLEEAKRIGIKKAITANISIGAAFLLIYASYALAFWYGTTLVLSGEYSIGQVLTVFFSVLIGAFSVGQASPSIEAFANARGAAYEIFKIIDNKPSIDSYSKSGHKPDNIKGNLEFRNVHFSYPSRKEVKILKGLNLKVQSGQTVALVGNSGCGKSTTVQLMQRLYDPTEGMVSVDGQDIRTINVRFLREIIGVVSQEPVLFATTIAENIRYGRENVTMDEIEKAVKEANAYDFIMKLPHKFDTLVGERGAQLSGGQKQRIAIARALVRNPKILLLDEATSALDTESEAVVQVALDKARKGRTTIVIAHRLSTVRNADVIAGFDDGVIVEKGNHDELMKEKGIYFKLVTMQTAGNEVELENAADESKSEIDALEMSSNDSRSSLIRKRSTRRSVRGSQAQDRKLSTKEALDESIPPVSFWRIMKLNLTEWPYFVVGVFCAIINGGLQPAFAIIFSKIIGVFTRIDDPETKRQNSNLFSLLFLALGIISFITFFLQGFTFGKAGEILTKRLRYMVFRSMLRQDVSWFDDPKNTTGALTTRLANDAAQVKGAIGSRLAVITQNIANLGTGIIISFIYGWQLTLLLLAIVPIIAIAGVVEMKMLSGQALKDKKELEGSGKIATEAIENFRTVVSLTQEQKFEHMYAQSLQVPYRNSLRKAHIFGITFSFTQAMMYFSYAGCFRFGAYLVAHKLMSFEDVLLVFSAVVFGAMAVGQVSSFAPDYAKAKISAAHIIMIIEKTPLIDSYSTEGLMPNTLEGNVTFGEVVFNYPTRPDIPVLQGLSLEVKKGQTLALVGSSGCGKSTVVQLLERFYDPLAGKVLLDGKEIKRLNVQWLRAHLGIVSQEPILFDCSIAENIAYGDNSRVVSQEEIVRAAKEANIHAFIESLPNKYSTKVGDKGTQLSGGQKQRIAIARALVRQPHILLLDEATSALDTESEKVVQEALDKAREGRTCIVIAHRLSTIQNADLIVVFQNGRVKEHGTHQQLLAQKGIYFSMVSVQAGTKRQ

EC50 [1] [nM] | Ki [2] [nM] | Ratio Ki [3] | Ki [4] [nM] | inhibition [5] [%] | SMILES
4580 | 91 | 0.03 | 2.44 |  | CCN(CCCCc1cn(-c2ccc(F)cc2)c2ccccc12)Cc1cccc(OC)c1
1040 | 169 | 16 | 2700 |  | COc1ccc(CNCCCCc2cn(-c3ccc(F)cc3)c3ccccc23)cc1OC
2950 | 227 | 2.4 | 544 |  | COc1cccc(CNCCCCc2cn(-c3ccc(F)cc3)c3ccccc23)c1
1120 | 2100 | 0.45 | 939 |  | COc1ccc(CCNCCCCc2cn(-c3ccc(F)cc3)c3ccccc23)cc1OC
7200 | 580 | 0.26 | 151 |  | COc1cccc(CCNCCCCc2cn(-c3ccc(F)cc3)c3ccccc23)c1
700 | 19 | 2.67 | 50.8 |  | CCN(CCCCc1cn(-c2ccc(F)cc2)c2ccccc12)[C@H]1CCc2c1ccc(OC)c2OC
3450 | 252 | 0.69 | 175 |  | COc1ccc2c(c1OC)CC[C@H]2NCCCCc1cn(-c2ccc(F)cc2)c2ccccc12
820 |  |  |  |  | COc1cc2c(cc1OC)CN(CC/C=C1\CCCc3c(OC)cccc31)CC2
7660 | 231 | 0.56 | 129 |  | COc1ccc(CNCCCCc2cn(-c3ccc(F)cc3)c3ccccc23)cc1
1790 | 97.1 | 0.19 | 18.9 | 85 | CCN(CCCCc1cn(-c2ccc(F)cc2)c2ccccc12)Cc1ccc(OC)c(OC)c1
1350 | 346 | 0.97 | 337 |  | COc1ccc(CCN(C)CCCCc2cn(-c3ccc(F)cc3)c3ccccc23)cc1OC
6570 | 111 | 0.16 | 17.5 |  | COc1cccc(CCN(C)CCCCc2cn(-c3ccc(F)cc3)c3ccccc23)c1
4680 | 69.8 |  |  |  | CCN(CCCCc1cn(-c2ccc(F)cc2)c2ccccc12)Cc1ccc(OC)cc1
1340 | 152 | 0.8 | 122 |  | COc1ccc2c(c1OC)CC[C@@H]2NCCCCc1cn(-c2ccc(F)cc2)c2ccccc12
4490 | 334 | 0.2 | 67.4 |  | COc1ccc(CCN(C)CCCCc2cn(-c3ccc(F)cc3)c3ccccc23)cc1
1740 | 35.2 | 3.58 | 126 |  | CCN(CCCCc1cn(-c2ccc(F)cc2)c2ccccc12)[C@@H]1CCc2c1ccc(OC)c2OC
2850 | 1400 | 0.3 | 431 |  | COc1ccc(CCNCCCCc2cn(-c3ccc(F)cc3)c3ccccc23)cc1
210 | 5.34 | 260 |  |  | COc1cc2c(cc1OC)CN(CCCCc1cn(-c3ccc(F)cc3)c3ccccc13)CC2
960 | 27.6 | 2.14 | 59.2 |  | CCN(CCCCc1cn(-c2ccc(F)cc2)c2ccccc12)C1CCc2c1ccc(OC)c2OC (racemic)
870 | 115 | 1.87 | 215 |  | COc1ccc2c(c1OC)CCC2NCCCCc1cn(-c2ccc(F)cc2)c2ccccc12 (racemic)
